Measurements: patent US8143374B2, “Polypeptide derivatives of parathyroid hormone (PTH)” (The General Hospital Corporation, priority 2006, dated 2012)
“Also recorded” adds a separate entry of the source. Like-named read-outs stand apart in the source and are kept apart here. Where a SMILES comes first, the peptide text is derived from it. Where no end group is shown, it is not given here. [ ]: non-standard residue; d: D form. Apa = (S)-2-amino-4[(2-amino)pyrimidinyl]methylalanine; Phe(4-guanidino) = N=C(N)Nc1ccc(C[C@H](N)C(=O)O)cc1; Cha = N[C@@H](CC1CCCCC1)C(=O)O

Experiments:
[1] = Circular dichroism spectroscopy, helical residues per peptide chain; assay type: physicochemical; settings: calculated from [θ]222
Outline: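 CD spectra recorded at 20 °C, four scans averaged; peptide concentration checked by A280 with the single-Trp extinction coefficient of 5700 M^−1. Helical residues per chain calculated as −[θ]222×30/28,000 from mean residue ellipticity at 222 nm.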

wild-type human PTHR = target: T1, wild-type human PTHR (Homo sapiens, UniProt Q03431); experiment: Competition binding in intact HKRK-B7 cells with 125I-PTH(1-34) tracer; settings: for detectable binding to the intact PTHR (in words) / enhancement in apparent PTHR-binding affinity relative to parent peptide / reduction (alteration) of apparent binding affinity for the intact PTHR relative to parent peptide: HKRK-B7 cells; for IC50: intact HKRK-B7 cells, read-out: PTHR-WT (HKRK-B7 cells) IC50; for enhancement in apparent PTHR-binding affinity relative to parent peptide: versus PTH(1-31)NH2; for reduction (alteration) of apparent binding affinity for the intact PTHR relative to parent peptide: versus the respective parent peptide
T1 construct: expressed in transfected cells
T1 sequence (Q03431 27-593): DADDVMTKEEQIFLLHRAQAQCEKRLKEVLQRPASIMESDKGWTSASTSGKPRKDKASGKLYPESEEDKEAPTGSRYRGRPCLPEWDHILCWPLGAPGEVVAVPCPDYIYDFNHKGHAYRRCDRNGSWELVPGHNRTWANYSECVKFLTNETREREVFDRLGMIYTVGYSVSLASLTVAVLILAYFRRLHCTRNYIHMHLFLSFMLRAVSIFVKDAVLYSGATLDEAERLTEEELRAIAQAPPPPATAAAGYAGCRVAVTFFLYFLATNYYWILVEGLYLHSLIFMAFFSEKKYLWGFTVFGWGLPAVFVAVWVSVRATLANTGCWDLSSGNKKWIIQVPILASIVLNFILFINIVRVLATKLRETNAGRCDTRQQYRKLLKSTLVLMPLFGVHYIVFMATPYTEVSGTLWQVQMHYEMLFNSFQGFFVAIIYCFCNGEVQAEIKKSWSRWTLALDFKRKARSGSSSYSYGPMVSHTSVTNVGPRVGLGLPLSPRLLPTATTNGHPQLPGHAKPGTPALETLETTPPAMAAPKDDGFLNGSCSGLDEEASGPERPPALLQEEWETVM
Description: Cell Culture—Cells were cultured at 37° C. in a humidified atmosphere containing 5% CO2 in Dulbecco's modified Eagle's medium (DMEM), supplemented with 10% fetal bovine serum (HyClone, Logan Utah), 100 units/ml penicillin G, and 100 ug/ml streptomycin penicillin G/streptomycin (Invitrogen Corp. Carlsbad, Calif.). For binding and cAMP studies performed with the intact PTHR, the HKRK-B7 and ROS 17/2.8 cell lines were used. HKRK-B7 cells are derived from the porcine kidney cell line LLC-PK1 and express, via stable DNA transfection, the wild-type human PTHR at an approximate surface density of 950,000 PTH-binding sites per cell. ROS 17/2.8 cells are rat osteosarcoma cells and express the endogenous PTHR at an approximate surface density of 80,000 PTH-binding sites per cell. The cells were plated and assayed in 24-well plates.
Receptor binding—Binding to the wild-type human PTHR in intact HKRK-B7 cells and ROS 17/2.8 cells was assessed using ^125I-PTH(1-34) as a tracer radioligand, as described (Shimizu, M., (2001) Endocrinology 142:3068-3074). In brief, the cells in 24-well plates (about 500,000 cells per well) were incubated in binding buffer containing radioligand (about 100,000 cpm per well) with or without unlabeled peptide ligand (3×10^−9 to 1×10^−5 M) for four hours at 15° C. The binding mixture was then removed by aspiration, the cells were rinsed three times with binding buffer, lysed in 1 M NaOH, and the entire lysate was counted for gamma-irradiation in a gamma counter. Binding to PTHR-delNt in COS-7 cell membranes was assessed in 96-well, vacuum filtration plates (Multiscreen-Durapore HV, […] membranes, Millipore Corp., Millford, Mass.) using ^125I-[Aib^1,3,M]PTH(1-15)NH2 as a tracer radioligand, as described (Dean, T., (2006) Mol Endocrinol 20:931-942). In brief, cell membranes (20 μg/well) were incubated in membrane binding buffer containing radioligand (30,000 cpm/well) with or without unlabeled peptide ligand (3×10^−9 to 1×10^−5 M) for 90 minutes at 21° C. The plates were then subject to rapid vacuum filtration, the filters were washed once with buffer, detached from the plate and counted for gamma-irradiation in a gamma counter. Non-specific binding was defined as the binding observed in the presence of 1×10^−6 M PTH(1-31)NH2 for HKRK-B7 and ROS 17/2.8 cells, and 1×10^−6 M [Aib^1,3,M]PTH(1-15)NH2 for PTHR-delNt. Specifically bound radioactivity was calculated as a percentage of the radioactivity specifically bound in the absence of competing ligand.
Data and statistical calculations—Data were processed for curve fitting and derivation of IC50 and EC50 values using least-squares, nonlinear regression analysis and the four parameter logistic equation: […], where y, ymin and ymax are the observed, minimum and maximum response values, respectively; x is ligand concentration, and n is the slope factor. In cases where incomplete inhibition of binding occurred: i.e. with certain PTH(1-31) analogs binding to PTHR-delNt, the curve fits and IC50 values were derived by extrapolating the data to the maximum inhibition attained by [Aib^1,3,M]PTH(1-15)NH2. Paired data sets were statistically compared using a two-tailed Student's t-test, assuming unequal variances for the two sets.

[2] = hPTH(1-31)NH2 analogs, 125I-[Nle8,21,Tyr34]ratPTH(1-34)NH2 tracer
[3] = [Ala1,Arg19]hPTH(1-31)NH2 analogs
[4] = [Ala1,Arg19]hPTH(1-31)NH2 analogs, 125I-[Nle8,21,Tyr34]rPTH(1-34)NH2 tracer

Compound	CD helical residues ([1]; hPTH(1-31)NH2 analogs)	IC50 (wild-type human PTHR; [2])	CD helical residues [1, 3]	reduction (alteration) of apparent binding affinity for the intact PTHR relative to parent peptide (wild-type human PTHR)	detectable binding to the intact PTHR (in words) (wild-type human PTHR)	also measured
SVSEIQLMHNLGKHLNSMEQVEWLRKKLQDV-NH2 [Arg^20→Gln]	7	> 10 µM			complete loss of detectable binding affinity	
AVSEIQLMHNLGKHLNSMRREEWLRKKLQDV-NH2 [Val^21→Glu]			7	12 fold		
SVSEIQLMHNLGKHLNSMEEVEWLRKKLQDV [Arg^20→Glu]	7		8		abolished detectable binding; also recorded: complete loss of detectable binding affinity	
CC[C@H](C)[C@H](NC(=O)[C@H](CCC(=O)O)NC(=O)[C@H](CO)NC(=O)[C@@H](NC(=O)[C@H](C)N)C(C)C)C(=O)N[C@@H](CCC(N)=O)C(=O)N[C@@H](CC(C)C)C(=O)N[C@@H](CCSC)C(=O)N[C@@H](Cc1c[nH]cn1)C(=O)N[C@@H](CC(N)=O)C(=O)N[C@@H](CC(C)C)C(=O)NCC(=O)N[C@@H](CCCCN)C(=O)N[C@@H](Cc1c[nH]cn1)C(=O)N[C@@H](CC(C)C)C(=O)N[C@@H](CC(N)=O)C(=O)N[C@@H](CO)C(=O)N[C@@H](CCSC)C(=O)N[C@@H](CCCNC(=N)N)C(=O)N[C@@H](CC1CCCCC1)C(=O)N[C@H](C(=O)N[C@@H](CCC(=O)O)C(=O)N[C@@H](Cc1c[nH]c2ccccc12)C(=O)N[C@@H](CC(C)C)C(=O)N[C@@H](CCCNC(=N)N)C(=O)N[C@@H](CCCCN)C(=O)N[C@@H](CCCCN)C(=O)N[C@@H](CC(C)C)C(=O)N[C@@H](CCC(N)=O)C(=O)N[C@@H](CC(=O)O)C(=O)N[C@H](C(N)=O)C(C)C)C(C)C [Arg^20→Cha, AlaValSerGluIleGlnLeuMetHisAsnLeuGlyLysHisLeuAsnSerMetArgChaValGluTrpLeuArgLysLysLeuGlnAspVal] (H-AVSEIQLMHNLGKHLNSMR[Cha]VEWLRKKLQDV-NH2; N-terminus assumed)			16	120 fold		
SVSEIQLMHNLGKHLNSMEAVEWLRKKLQDV-NH2 [Arg^20→Ala]	10	> 10 µM			abolished detectable binding altogether; also recorded: abolished binding to the PTHR	
SVSEIQLMHNLGKHLNSMERVEWLAKKLQDV-NH2 [Arg^25→Ala]	7			three- to four-fold		
AVSEIQLMHNLGKHLNSMERVEWLRKKLQDV-NH2 [Arg^19→Glu]			9	two- to five-fold reductions		IC50 (wild-type human PTHR; [4]): 0.125 ± 0.029 µM
CC[C@H](C)[C@H](NC(=O)[C@H](CCC(=O)O)NC(=O)[C@H](CO)NC(=O)[C@@H](NC(=O)[C@@H](N)CO)C(C)C)C(=O)N[C@@H](CCC(N)=O)C(=O)N[C@@H](CC(C)C)C(=O)N[C@@H](CCSC)C(=O)N[C@@H](Cc1c[nH]cn1)C(=O)N[C@@H](CC(N)=O)C(=O)N[C@@H](CC(C)C)C(=O)NCC(=O)N[C@@H](CCCCN)C(=O)N[C@@H](Cc1c[nH]cn1)C(=O)N[C@@H](CC(C)C)C(=O)N[C@@H](CC(N)=O)C(=O)N[C@@H](CO)C(=O)N[C@@H](CCSC)C(=O)N[C@@H](CCC(=O)O)C(=O)N[C@@H](Cc1ccc(NC(=N)N)cc1)C(=O)N[C@H](C(=O)N[C@@H](CCC(=O)O)C(=O)N[C@@H](Cc1c[nH]c2ccccc12)C(=O)N[C@@H](CC(C)C)C(=O)N[C@@H](CCCNC(=N)N)C(=O)N[C@@H](CCCCN)C(=O)N[C@@H](CCCCN)C(=O)N[C@@H](CC(C)C)C(=O)N[C@@H](CCC(N)=O)C(=O)N[C@@H](CC(=O)O)C(=O)N[C@H](C(N)=O)C(C)C)C(C)C [Arg^20→Gph] (H-SVSEIQLMHNLGKHLNSME[Phe(4-guanidino)]VEWLRKKLQDV-NH2; N-terminus assumed)		> 10 µM			complete loss of detectable binding affinity	
Arg^20→Apa: hPTH(1-31)NH2 analog with Arg^20 replaced by (S)-2-amino-4[(2-amino)pyrimidinyl]methylalanine (Apa) (SVSEIQLMHNLGKHLNSME[Apa]VEWLRKKLQDV-NH2)		> 10 µM			complete loss of detectable binding affinity	

Second part, led by results:

CD helical residues ([1]; hPTH(1-31)NH2 analogs)	IC50 (wild-type human PTHR; [2])	CD helical residues [1, 3]	reduction (alteration) of apparent binding affinity for the intact PTHR relative to parent peptide (wild-type human PTHR)	Compound	detectable binding to the intact PTHR (in words) (wild-type human PTHR)	also measured
8	0.054 ± 0.013 µM			SVSEIQLMHNLGKHLNSMRRVAWLRKKLQDV-NH2 [Glu^19,22→Arg,Ala]		enhancement in apparent PTHR-binding affinity relative to parent peptide (wild-type human PTHR): did not lead to further improvements
		5	two- to five-fold reductions	AVSEIQLMHNLGKHLNSMRRVEWLEKKLQDV-NH2 [Arg^25→Glu]		
9	0.049 ± 0.009 µM			SVSEIQLMHNLGKHLNSMARVAWLRKKLQDV-NH2 [Glu^19,22→Ala,Ala]		enhancement in apparent PTHR-binding affinity relative to parent peptide (wild-type human PTHR): did not lead to further improvements
		6		AVSEIQLMHNLGKHLNSMRRVEWERKKLQDV-NH2 [Leu^24→Glu]	abolished detectable binding	IC50 (wild-type human PTHR; [4]): > 10 µM
		8		CC[C@H](C)[C@H](NC(=O)[C@H](CCC(=O)O)NC(=O)[C@H](CO)NC(=O)[C@@H](NC(=O)[C@H](C)N)C(C)C)C(=O)N[C@@H](CCC(N)=O)C(=O)N[C@@H](CC(C)C)C(=O)N[C@@H](CCSC)C(=O)N[C@@H](Cc1c[nH]cn1)C(=O)N[C@@H](CC(N)=O)C(=O)N[C@@H](CC(C)C)C(=O)NCC(=O)N[C@@H](CCCCN)C(=O)N[C@@H](Cc1c[nH]cn1)C(=O)N[C@@H](CC(C)C)C(=O)N[C@@H](CC(N)=O)C(=O)N[C@@H](CO)C(=O)N[C@@H](CCSC)C(=O)N[C@@H](CCCNC(=N)N)C(=O)N[C@@H](CCCNC(=N)N)C(=O)N[C@H](C(=O)N[C@@H](CCC(=O)O)C(=O)N[C@@H](Cc1c[nH]c2ccccc12)C(=O)N[C@@H](CC(C)C)C(=O)N[C@@H](CCCNC(=N)N)C(=O)N[C@@H](CCCCN)C(=O)N[C@@H](CCCCN)C(=O)N[C@@H](CC(C)C)C(=O)N[C@@H](CCC(N)=O)C(=O)N[C@@H](CC1CCCCC1)C(=O)N[C@H](C(N)=O)C(C)C)C(C)C [Asp^30→Cha] (H-AVSEIQLMHNLGKHLNSMRRVEWLRKKLQ[Cha]V-NH2; N-terminus assumed)		IC50 (wild-type human PTHR; [4]): 0.054 ± 0.007 µM
8				SVSEIQLMHNLGKHLNSMRRVEWLRKKLQDV-NH2 [Glu^19→Arg]		enhancement in apparent PTHR-binding affinity relative to parent peptide (wild-type human PTHR): ≦two-fold
9			three- to four-fold	SVSEIQLMHNLGKHLNSMERVEWLRKALQDV-NH2 [Lys^27→Ala]		
